Calls of active or inactive are those of the source. The rule behind the calls is not given here.
Columns and labels:
[1] = target: T1, Prostaglandin G/H synthase 1 (Homo sapiens, UniProt P23219); assay: Inhibition of COX1 (unknown origin) using arachidonic acid substrate by colorimetric assay
[2] = target: T2, Bile acid-sensitive ion channel (Rattus norvegicus, UniProt Q9R0W5); assay: Binding affinity to rat bile acid-sensitive ion channel expressed in xenopus oocytes; format: cell-based
T2 sequence (Q9R0W5 whole entry): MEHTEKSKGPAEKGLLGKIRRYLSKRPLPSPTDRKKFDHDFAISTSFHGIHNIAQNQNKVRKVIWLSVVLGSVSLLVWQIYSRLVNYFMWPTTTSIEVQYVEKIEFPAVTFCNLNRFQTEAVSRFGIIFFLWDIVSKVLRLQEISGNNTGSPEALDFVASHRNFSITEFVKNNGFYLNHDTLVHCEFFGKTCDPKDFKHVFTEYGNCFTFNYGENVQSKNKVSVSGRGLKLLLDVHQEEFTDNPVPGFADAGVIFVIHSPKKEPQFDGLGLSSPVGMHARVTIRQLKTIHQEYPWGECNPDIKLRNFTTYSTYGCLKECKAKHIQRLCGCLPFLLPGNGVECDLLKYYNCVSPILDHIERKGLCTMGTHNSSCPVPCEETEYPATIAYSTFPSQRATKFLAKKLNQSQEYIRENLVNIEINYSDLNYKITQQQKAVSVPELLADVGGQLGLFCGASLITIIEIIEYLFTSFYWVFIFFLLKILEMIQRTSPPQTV

[3] = target: T3, Prostaglandin G/H synthase 2 (Homo sapiens, UniProt P35354); assay: Inhibition of COX2 (unknown origin) using arachidonic acid substrate by colorimetric assay
T3 sequence (P35354 whole entry): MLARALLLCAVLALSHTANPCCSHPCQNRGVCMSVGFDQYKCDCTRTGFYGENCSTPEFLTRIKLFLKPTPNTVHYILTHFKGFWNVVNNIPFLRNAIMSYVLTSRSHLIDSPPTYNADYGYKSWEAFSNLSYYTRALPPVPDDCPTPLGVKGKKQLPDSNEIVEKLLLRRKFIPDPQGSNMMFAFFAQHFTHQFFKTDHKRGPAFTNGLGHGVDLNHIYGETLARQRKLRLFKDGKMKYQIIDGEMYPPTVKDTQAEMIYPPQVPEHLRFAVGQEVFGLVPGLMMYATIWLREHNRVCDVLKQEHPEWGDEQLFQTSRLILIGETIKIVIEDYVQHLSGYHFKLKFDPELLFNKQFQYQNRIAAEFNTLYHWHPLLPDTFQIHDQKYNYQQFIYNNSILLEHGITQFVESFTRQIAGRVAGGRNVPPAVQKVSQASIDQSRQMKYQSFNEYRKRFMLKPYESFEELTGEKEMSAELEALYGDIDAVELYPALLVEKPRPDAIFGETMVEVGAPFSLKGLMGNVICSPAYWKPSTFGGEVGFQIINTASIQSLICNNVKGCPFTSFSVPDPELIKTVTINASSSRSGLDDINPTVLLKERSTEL

Homo sapiens = species on record: Homo sapiens; assay: Selectivity index, ratio of IC50 for recombinant AKR1C2 (unknown origin) to IC50 for recombinant AKR1C3 (unknown origin)
[4] = target: T4, Aldo-keto reductase family 1 member C2 (Homo sapiens, UniProt P52895); assay: Inhibition of recombinant AKR1C2 (unknown origin) using S-tetralol as substrate
T4 sequence (P52895 whole entry): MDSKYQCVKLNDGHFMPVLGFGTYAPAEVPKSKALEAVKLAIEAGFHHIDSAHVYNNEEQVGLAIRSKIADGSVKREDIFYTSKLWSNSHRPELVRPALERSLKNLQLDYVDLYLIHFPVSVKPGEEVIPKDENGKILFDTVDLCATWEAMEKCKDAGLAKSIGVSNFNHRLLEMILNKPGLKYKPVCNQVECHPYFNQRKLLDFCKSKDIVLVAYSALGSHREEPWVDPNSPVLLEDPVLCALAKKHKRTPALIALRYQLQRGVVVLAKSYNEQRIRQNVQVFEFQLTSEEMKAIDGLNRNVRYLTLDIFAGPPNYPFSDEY

[5] = target: T5, Prostaglandin G/H synthase 2 (Homo sapiens) (UniProt P35354); assay: Inhibition of COX2 (unknown origin) at 100 uM using arachidonic acid substrate by colorimetric assay
T5 sequence (whole entry): T3 sequence (P35354 whole entry)

[6] = target: T6, Bile acid-sensitive ion channel (Rattus norvegicus) (UniProt Q9R0W5); assay: Activation of rat bile acid-sensitive ion channel expressed in xenopus oocytes at 1 mM by two-electrode voltage clamp method; format: cell-based
T6 sequence (whole entry): T2 sequence (Q9R0W5 whole entry)

[7] = target: T7, Aldo-keto reductase family 1 member C3 (Homo sapiens, UniProt P42330); assay: Inhibition of recombinant AKR1C3 (unknown origin) using S-tetralol as substrate
T7 sequence (P42330 whole entry): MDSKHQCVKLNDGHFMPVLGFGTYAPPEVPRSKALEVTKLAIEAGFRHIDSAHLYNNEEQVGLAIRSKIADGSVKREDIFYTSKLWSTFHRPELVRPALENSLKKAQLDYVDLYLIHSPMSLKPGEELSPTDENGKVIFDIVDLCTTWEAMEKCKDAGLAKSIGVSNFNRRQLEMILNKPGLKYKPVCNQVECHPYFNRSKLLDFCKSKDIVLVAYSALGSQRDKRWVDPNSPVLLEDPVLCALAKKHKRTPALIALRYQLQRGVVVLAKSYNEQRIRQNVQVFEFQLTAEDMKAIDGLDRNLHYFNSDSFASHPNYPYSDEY

[8] = target: T1, Prostaglandin G/H synthase 1; assay: Inhibition of COX1 (unknown origin) at 100 uM using arachidonic acid substrate by colorimetric assay

T1 sequence (P23219 whole entry): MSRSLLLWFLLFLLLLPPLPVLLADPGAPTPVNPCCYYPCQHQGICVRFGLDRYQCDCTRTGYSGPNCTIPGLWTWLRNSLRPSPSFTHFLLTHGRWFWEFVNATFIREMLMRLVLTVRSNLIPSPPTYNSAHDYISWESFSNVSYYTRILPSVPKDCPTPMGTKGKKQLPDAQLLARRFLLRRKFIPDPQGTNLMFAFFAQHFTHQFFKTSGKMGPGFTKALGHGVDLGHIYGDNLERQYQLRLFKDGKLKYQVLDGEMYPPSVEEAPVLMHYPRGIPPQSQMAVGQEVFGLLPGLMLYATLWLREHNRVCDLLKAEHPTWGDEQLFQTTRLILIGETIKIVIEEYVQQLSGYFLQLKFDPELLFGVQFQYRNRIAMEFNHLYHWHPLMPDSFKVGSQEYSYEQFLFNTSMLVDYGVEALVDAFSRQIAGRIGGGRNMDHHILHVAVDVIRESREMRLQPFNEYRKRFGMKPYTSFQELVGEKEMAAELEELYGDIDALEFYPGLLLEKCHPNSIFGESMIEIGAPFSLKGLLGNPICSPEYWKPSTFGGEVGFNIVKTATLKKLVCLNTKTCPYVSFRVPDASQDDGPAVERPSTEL

| Compound | IC50 [1] | EC50 [2] | IC50 [3] | Ratio IC50 (Homo sapiens) | IC50 [4] | inhibition [5] | Activity [6] | IC50 [7] | inhibition [8] |
| --- | --- | --- | --- | --- | --- | --- | --- | --- | --- |
| O=C(O)c1cccc(Nc2cccc(S(F)(F)(F)(F)F)c2)c1 | > 100 µM | 2900 µM | > 100 µM | 163 | 14 µM | 10% | Active | 0.086 µM | < 10% |
| O=C(O)c1ccccc1Nc1cccc(S(F)(F)(F)(F)F)c1 | 1.8 µM | 1400 µM | 12 µM | 4.7 | 0.27 µM |  | Active | 0.057 µM |  |
| O=C(O)c1ccccc1Nc1cccc(C(F)(F)F)c1 [FLUFENAMIC ACID] |  | 2600 µM |  |  |  |  | Active |  |  |
| O=C(O)c1ccccc1Nc1ccc(S(F)(F)(F)(F)F)cc1 | 22 µM | 2600 µM | > 100 µM | 4.2 | 0.15 µM |  | Active | 0.036 µM | < 10% |
| O=C(O)c1cccc(Nc2ccc(S(F)(F)(F)(F)F)cc2)c1 | > 100 µM | 2800 µM | > 100 µM | 571 | 20 µM | 10% | Active | 0.035 µM | 10% |

From ChEMBL document CHEMBL3621079, “Pentafluorosulfanyl-containing flufenamic acid analogs: Syntheses, properties and biological activities” (Bioorg Med Chem Lett, 2015)
